Source: ChEMBL document CHEMBL1201861, “Genomics of Drug Sensitity in Cancer screening data, Wellcome Trust Sanger Institute”

What was measured:
CaR-1 = assay: cells; type: functional, cell-based; conditions: Homo sapiens;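 note: growth inhibition of human CaR-1 cancer cells, read out with a cell viability assay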
Description: SANGER: Inhibition of human CaR-1 cell growth in a cell viability assay.

D-392MG = assay: cells; type: functional, cell-based; conditions: Homo sapiens
DMS-273 = assay: cells; type: functional, cell-based; conditions: Homo sapiens
Description: SANGER: Inhibition of human DMS-273 cell growth in a cell viability assay.

Daoy = assay: cells; type: functional, cell-based; conditions: Homo sapiens;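 note: daoy cell growth inhibition, read out as cell viability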
Description: SANGER: Inhibition of human Daoy cell growth in a cell viability assay.

EFO-27 = assay: cells; type: functional, cell-based; conditions: Homo sapiens;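 note: growth inhibition of EFO-27 cells, read out with a cell viability assay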
Description: SANGER: Inhibition of human EFO-27 cell growth in a cell viability assay.

FaDu = assay: cells; type: functional, cell-based; conditions: Homo sapiens;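 note: cell viability readout of growth inhibition in FaDu cells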
Description: SANGER: Inhibition of human FADU cell growth in a cell viability assay.

GAMG = assay: cells; type: functional, cell-based; conditions: Homo sapiens;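 note: cell growth inhibition measured by a viability assay in the GAMG human cell line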
Description: SANGER: Inhibition of human GAMG cell growth in a cell viability assay.

HCC1569 = assay: cells; type: functional, cell-based; conditions: Homo sapiens;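 note: growth inhibition of human HCC1569 cells, read out with a cell viability assay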
Description: SANGER: Inhibition of human HCC1569 cell growth in a cell viability assay.

HGC-27 = assay: cells; type: functional, cell-based; conditions: Homo sapiens;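 note: growth inhibition of human HGC-27 cells, read out in a cell viability assay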
Description: SANGER: Inhibition of human HGC-27 cell growth in a cell viability assay.

HLE = assay: cells; type: functional, cell-based; conditions: Homo sapiens;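 note: growth inhibition of human HLE cells, read out by a cell viability assay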
Description: SANGER: Inhibition of human HLE cell growth in a cell viability assay.

HT1197 = assay: cells; type: functional, cell-based, HT-1197; conditions: Homo sapiens
Description: SANGER: Inhibition of human HT-1197 cell growth in a cell viability assay.

IMR-5 = assay: cells; type: functional, cell-based; conditions: Homo sapiens;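 note: growth inhibition of human IMR-5 cells, read out with a cell viability assay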
Description: SANGER: Inhibition of human IMR-5 cell growth in a cell viability assay.

KARPAS-422 = assay: cells; type: functional, cell-based; conditions: Homo sapiens
Description: SANGER: Inhibition of human KARPAS-422 cell growth in a cell viability assay.

KMS-12-PE = assay: cells; type: functional, cell-based; conditions: Homo sapiens;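 note: growth inhibition of human KMS-12-PE cells, measured with a cell viability assay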
Description: SANGER: Inhibition of human KMS-12-PE cell growth in a cell viability assay.

KOSC-2 = assay: cells; type: functional, cell-based; conditions: Homo sapiens;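 note: growth inhibition of KOSC-2 cells, read out by a cell viability assay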
Description: SANGER: Inhibition of human KOSC-2 cell growth in a cell viability assay.

KYSE-520 cell line = assay: cells; type: functional, cell-based; conditions: Homo sapiens;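 note: growth inhibition of human KYSE-520 cells, read out with a viability assay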
Description: SANGER: Inhibition of human KYSE-520 cell growth in a cell viability assay.

LN-405 = assay: cells; type: functional, cell-based; conditions: Homo sapiens
Description: SANGER: Inhibition of human LN-405 cell growth in a cell viability assay.

LP-1 = assay: cells; type: functional, cell-based; conditions: Homo sapiens;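 note: growth inhibition of human LP-1 cells, with the read-out taken from a cell viability assay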
Description: SANGER: Inhibition of human LP-1 cell growth in a cell viability assay.

LoVo = assay: cells; type: functional, cell-based; conditions: Homo sapiens;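 note: growth inhibition of human LoVo cells, read out with a cell viability assay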
Description: SANGER: Inhibition of human LoVo cell growth in a cell viability assay.

MC-CAR = assay: cells; type: functional, cell-based; conditions: Homo sapiens;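 note: growth inhibition of the human MC-CAR cell line, read out by a cell viability assay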
Description: SANGER: Inhibition of human MC-CAR cell growth in a cell viability assay.

MDA-MB-415 = assay: cells; type: functional, cell-based; conditions: Homo sapiens
NCCIT = assay: SANGER: Inhibition of human NCCIT cell growth in a cell viability assay.; type: functional, cell-based
NCI-H1522 = assay: cells; type: functional, cell-based; conditions: Homo sapiens;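 note: growth inhibition of NCI-H1522 cells, read out with a cell viability assay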
Description: SANGER: Inhibition of human NCI-H1522 cell growth in a cell viability assay.

NCI-H1623 = assay: cells; type: functional, cell-based; conditions: Homo sapiens;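 note: cell viability assay used as the read-out for growth inhibition of NCI-H1623 cells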
Description: SANGER: Inhibition of human NCI-H1623 cell growth in a cell viability assay.

NCI-H1792 = assay: cells; type: functional, cell-based; conditions: Homo sapiens;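 note: growth inhibition of human NCI-H1792 cells, read out as cell viability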
Description: SANGER: Inhibition of human NCI-H1792 cell growth in a cell viability assay.

NCI-H1793 = assay: cells; type: functional, cell-based; conditions: Homo sapiens;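 note: cell growth inhibition, read out by a cell viability assay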
Description: SANGER: Inhibition of human NCI-H1793 cell growth in a cell viability assay.

NCI-H1882 = assay: cells; type: functional, cell-based; conditions: Homo sapiens;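 note: growth inhibition of the cell line, determined with a viability assay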
Description: SANGER: Inhibition of human NCI-H1882 cell growth in a cell viability assay.

NCI-H2087 = assay: cells; type: functional, cell-based; conditions: Homo sapiens;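 note: growth inhibition determined with a cell viability readout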
Description: SANGER: Inhibition of human NCI-H2087 cell growth in a cell viability assay.

NCI-H2141 = assay: cells; type: functional, cell-based; conditions: Homo sapiens;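 note: growth inhibition of human NCI-H2141 cells, read out with a cell viability assay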
Description: SANGER: Inhibition of human NCI-H2141 cell growth in a cell viability assay.

NCI-H2452 = assay: cells; type: functional, cell-based; conditions: Homo sapiens;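 note: growth inhibition of NCI-H2452 cells, read out with a cell viability assay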
Description: SANGER: Inhibition of human NCI-H2452 cell growth in a cell viability assay.

NCI-H345 = assay: cells; type: functional, cell-based; conditions: Homo sapiens;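 note: growth inhibition of NCI-H345 cells measured with a cell viability assay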
Description: SANGER: Inhibition of human NCI-H345 cell growth in a cell viability assay.

NCI-H716 = assay: cells; type: functional, cell-based; conditions: Homo sapiens;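 note: growth inhibition of human NCI-H716 cells, measured by a cell viability assay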
Description: SANGER: Inhibition of human NCI-H716 cell growth in a cell viability assay.

PANC-03-27 = assay: cells; type: functional, cell-based; conditions: Homo sapiens
Description: SANGER: Inhibition of human PANC-03-27 cell growth in a cell viability assay.

RPMI-6666 = assay: cells; type: functional, cell-based; conditions: Homo sapiens
Description: SANGER: Inhibition of human RPMI-6666 cell growth in a cell viability assay.

RT-112 = assay: cells; type: functional, cell-based; conditions: Homo sapiens
Description: SANGER: Inhibition of human RT-112 cell growth in a cell viability assay.

SIG-M5 = assay: cells; type: functional, cell-based; conditions: Homo sapiens;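 note: cell viability assay read-out, measuring how strongly growth of cultured human SIG-M5 cells is inhibited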
Description: SANGER: Inhibition of human SIG-M5 cell growth in a cell viability assay.

SIMA = assay: cells; type: functional, cell-based; conditions: Homo sapiens;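 note: growth inhibition of SIMA cells, measured with a cell viability readout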
Description: SANGER: Inhibition of human SIMA cell growth in a cell viability assay.

SJRH30 = assay: cells; type: functional, cell-based; conditions: Homo sapiens;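 note: growth inhibition of human SJRH30 cells, read out with a cell viability assay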
Description: SANGER: Inhibition of human SJRH30 cell growth in a cell viability assay.

SK-N-AS = assay: cells; type: functional, cell-based; conditions: Homo sapiens;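 note: growth inhibition of human SK-N-AS cells, measured with a cell viability assay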
Description: SANGER: Inhibition of human SK-N-AS cell growth in a cell viability assay.

SN12C = assay: cells; type: functional, cell-based; conditions: Homo sapiens;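 note: growth inhibition of human SN12C cells, measured by a cell viability assay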
Description: SANGER: Inhibition of human SN12C cell growth in a cell viability assay.

SNU-C1 = assay: cells; type: functional, cell-based; conditions: Homo sapiens;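 note: growth inhibition of SNU-C1 human cells, read out by a cell viability assay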
Description: SANGER: Inhibition of human SNU-C1 cell growth in a cell viability assay.

SW1088 = assay: cells; type: functional, cell-based; conditions: Homo sapiens;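 note: growth inhibition of human SW1088 cells, read out by a cell viability assay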
Description: SANGER: Inhibition of human SW1088 cell growth in a cell viability assay.

SW13 = assay: cells; type: functional, cell-based; conditions: Homo sapiens;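 note: IC50 is inhibition of SW13 cell growth, read out with a cell viability assay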
Description: SANGER: Inhibition of human SW13 cell growth in a cell viability assay.

SW1463 = assay: cells; type: functional, cell-based; conditions: Homo sapiens;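 note: growth inhibition of SW1463 cells, determined with a cell viability assay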
Description: SANGER: Inhibition of human SW1463 cell growth in a cell viability assay.

SW837 = assay: cells; type: functional, cell-based; conditions: Homo sapiens;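 note: growth inhibition of SW837 cells, determined with a cell viability assay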
Description: SANGER: Inhibition of human SW837 cell growth in a cell viability assay.

SW948 = assay: cells; type: functional, cell-based; conditions: Homo sapiens;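 note: growth inhibition of SW948 cells, read out with a cell viability assay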
Description: SANGER: Inhibition of human SW948 cell growth in a cell viability assay.

T84 = assay: cells; type: functional, cell-based; conditions: Homo sapiens;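 note: growth inhibition measured with a cell viability readout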
Description: SANGER: Inhibition of human T84 cell growth in a cell viability assay.

5637 = assay: cells; type: functional, cell-based; conditions: Homo sapiens
Description: SANGER: Inhibition of human 5637 cell growth in a cell viability assay.

639-V = assay: cells; type: functional, cell-based; conditions: Homo sapiens;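 note: growth inhibition of 639-V cells, read out with a cell viability assay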
Description: SANGER: Inhibition of human 639-V cell growth in a cell viability assay.

769-P = assay: cells; type: functional, cell-based; conditions: Homo sapiens
Description: SANGER: Inhibition of human 769-P cell growth in a cell viability assay.

786-0 = assay: cells; type: functional, cell-based; conditions: Homo sapiens
Description: SANGER: Inhibition of human 786-0 cell growth in a cell viability assay.

8505C = assay: cells; type: functional, cell-based; conditions: Homo sapiens
Description: SANGER: Inhibition of human 8505C cell growth in a cell viability assay.

A-427 = assay: cells; type: functional, cell-based; conditions: Homo sapiens;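 note: growth inhibition of human A-427 cells, read out by a cell viability assay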
Description: SANGER: Inhibition of human A427 cell growth in a cell viability assay.

ABC-1 = assay: cells; type: functional, cell-based; conditions: Homo sapiens;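 note: growth inhibition of human ABC-1 cells, read out by a cell viability assay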
Description: SANGER: Inhibition of human ABC-1 cell growth in a cell viability assay.

ARH-77 = assay: cells; type: functional, cell-based; conditions: Homo sapiens;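 note: growth inhibition of ARH-77 cells, read out by a cell viability assay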
Description: SANGER: Inhibition of human ARH-77 cell growth in a cell viability assay.

BXPC-3 = assay: cells; type: functional, cell-based; conditions: Homo sapiens;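 note: growth inhibition of human BxPC-3 cells, read out by a cell viability assay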
Description: SANGER: Inhibition of human BxPC-3 cell growth in a cell viability assay.

C-33-A = assay: cells; type: functional, cell-based; conditions: Homo sapiens;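 note: cell viability assay measuring growth inhibition of C-33-A cells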
Description: SANGER: Inhibition of human C-33-A cell growth in a cell viability assay.

CAL-27 = assay: cells; type: functional, cell-based; conditions: Homo sapiens;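 note: Viability-based readout, IC50 reflecting inhibition of CAL-27 cell growth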
Description: SANGER: Inhibition of human CAL-27 cell growth in a cell viability assay.

CAL-62 = assay: cells; type: functional, cell-based; conditions: Homo sapiens;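 note: growth inhibition of CAL-62 cells, read out with a cell viability assay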
Description: SANGER: Inhibition of human CAL-62 cell growth in a cell viability assay.

THP-1 = assay: cells; type: functional, cell-based; conditions: Homo sapiens;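 note: growth inhibition of THP-1 cells, read out via a cell viability assay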
Description: SANGER: Inhibition of human THP-1 cell growth in a cell viability assay.

UMC-11 = assay: cells; type: functional, cell-based; conditions: Homo sapiens;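 note: growth inhibition of UMC-11 cells, read out with a cell viability assay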
Description: SANGER: Inhibition of human UMC-11 cell growth in a cell viability assay.

WM-115 = assay: cells; type: functional, cell-based; conditions: Homo sapiens
Description: SANGER: Inhibition of human WM-115 cell growth in a cell viability assay.

WSU-NHL = assay: cells; type: functional, cell-based; conditions: Homo sapiens;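 note: growth inhibition of human WSU-NHL cells, read out with a cell viability assay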
Description: SANGER: Inhibition of human WSU-NHL cell growth in a cell viability assay.

CAPAN-1 = assay: cells; type: functional, cell-based; conditions: Homo sapiens;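 note: growth suppression of CAPAN-1 cells, read out by a cell viability assay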
Description: SANGER: Inhibition of human CAPAN-1 cell growth in a cell viability assay.

Work on `CO[C@@]12[C@H](COC(N)=O)C3=C(C(=O)C(C)=C(N)C3=O)N1C[C@@H]1N[C@@H]12` [MITOMYCIN] yielded an IC50 (CaR-1) of 469 nM, an IC50 (D-392MG) of 6680 nM and an IC50 (DMS-273) of 161 nM. It also gave an IC50 (Daoy) of 88 nM, an IC50 (EFO-27) of 1130 nM and an IC50 (FaDu) of 128 nM. The IC50 (GAMG) was 428 nM, the IC50 (HCC1569) was 645 nM and the IC50 (HGC-27) was 49.3 nM. The IC50 (HLE) was 498 nM, the IC50 (HT1197) was 2020 nM and the IC50 (IMR-5) was < 62.5 nM. The IC50 (KARPAS-422) was 907 nM, the IC50 (KMS-12-PE) was 3830 nM and the IC50 (KOSC-2) was 1530 nM. For the same molecule, the IC50 (KYSE-520 cell line) was 772 nM, the IC50 (LN-405) was 2150 nM and the IC50 (LP-1) was 4560 nM. It also gave an IC50 (LoVo) of 431 nM, an IC50 (MC-CAR) of 161 nM and an IC50 (MDA-MB-415) of 724 nM. For the same molecule, the IC50 (NCCIT) was 1010 nM, the IC50 (NCI-H1522) was 3240 nM and the IC50 (NCI-H1623) was 1010 nM. The IC50 (NCI-H1792) was 697 nM, the IC50 (NCI-H1793) was 1810 nM and the IC50 (NCI-H1882) was 257 nM. It also gave an IC50 (NCI-H2087) of 85.7 nM, an IC50 (NCI-H2141) of 853 nM and an IC50 (NCI-H2452) of 8940 nM. It also gave an IC50 (NCI-H345) of 4730 nM, an IC50 (NCI-H716) of 2820 nM and an IC50 (PANC-03-27) of 167 nM. The IC50 (RPMI-6666) was 220 nM, the IC50 (RT-112) was 178 nM and the IC50 (SIG-M5) was < 62.5 nM. For the same molecule, the IC50 (SIMA) was 241 nM, the IC50 (SJRH30) was 1670 nM and the IC50 (SK-N-AS) was 1790 nM. For the same molecule, the IC50 (SN12C) was 3460 nM, the IC50 (SNU-C1) was 1910 nM and the IC50 (SW1088) was 4670 nM. The IC50 (SW13) was 642 nM, the IC50 (SW1463) was 2080 nM and the IC50 (SW837) was 276 nM. For the same molecule, the IC50 (SW948) was 3750 nM, the IC50 (T84) was 173 nM and the IC50 5637 was 31.9 nM. For the same molecule, the IC50 (639-V) was < 62.5 nM, the IC50 (769-P) was < 62.5 nM and the IC50 (786-0) was < 62.5 nM. It also gave an IC50 (8505C) of 430 nM, an IC50 (A-427) of 301 nM and an IC50 (ABC-1) of 61.2 nM. It also gave an IC50 (ARH-77) of 243 nM, an IC50 (BXPC-3) of 775 nM and an IC50 (C-33-A) of 487 nM. For the same molecule, the IC50 (CAL-27) was 41.2 nM, the IC50 (CAL-62) was 242 nM and the IC50 (THP-1) was 596 nM. For the same molecule, the IC50 (UMC-11) was 567 nM, the IC50 (WM-115) was > 16000 nM and the IC50 (WSU-NHL) was 192 nM. For the same molecule, the IC50 (CAPAN-1) was 116 nM.

For `C/C=C(/C)C(=O)O[C@H]1C(C)=C2[C@H]([C@@H]1OC(=O)CCCCCCC)[C@@](C)(OC(C)=O)C[C@H](OC(=O)CCC)[C@@]1(O)[C@H]2OC(=O)[C@@]1(C)O` [THAPSIGARGIN], the IC50 (CaR-1) was 8.62 nM, the IC50 (D-392MG) was > 512 nM and the IC50 (DMS-273) was < 2 nM. It also gave an IC50 (Daoy) of 5.34 nM, an IC50 (EFO-27) of 25.4 nM and an IC50 (FaDu) of 169 nM. For the same molecule, the IC50 (GAMG) was 8.86 nM, the IC50 (HCC1569) was 17.9 nM and the IC50 (HGC-27) was < 2 nM. The IC50 (HLE) was 2.75 nM, the IC50 (HT1197) was > 512 nM and the IC50 (IMR-5) was 15.6 nM. It also gave an IC50 (KARPAS-422) of 23.9 nM, an IC50 (KMS-12-PE) of 297 nM and an IC50 (KOSC-2) of 425 nM. For the same molecule, the IC50 (KYSE-520 cell line) was 20.7 nM, the IC50 (LN-405) was > 512 nM and the IC50 (LP-1) was 4.08 nM. For the same molecule, the IC50 (LoVo) was 10.4 nM, the IC50 (MC-CAR) was 24.4 nM and the IC50 (MDA-MB-415) was > 512 nM. For the same molecule, the IC50 (NCCIT) was < 2 nM, the IC50 (NCI-H1522) was > 512 nM and the IC50 (NCI-H1623) was > 512 nM. For the same molecule, the IC50 (NCI-H1792) was 0.526 nM, the IC50 (NCI-H1793) was > 512 nM and the IC50 (NCI-H1882) was > 512 nM. The IC50 (NCI-H2087) was 0.546 nM, the IC50 (NCI-H2141) was 85 nM and the IC50 (NCI-H2452) was > 512 nM. The IC50 (NCI-H345) was 37 nM, the IC50 (NCI-H716) was > 512 nM and the IC50 (PANC-03-27) was < 2 nM. For the same molecule, the IC50 (RPMI-6666) was 42.6 nM, the IC50 (RT-112) was 4.22 nM and the IC50 (SIG-M5) was < 2 nM. The IC50 (SIMA) was 38.4 nM, the IC50 (SJRH30) was 8.84 nM and the IC50 (SK-N-AS) was 48.5 nM. The IC50 (SN12C) was 16.6 nM, the IC50 (SNU-C1) was > 512 nM and the IC50 (SW1088) was 324 nM. The IC50 (SW13) was 9.38 nM, the IC50 (SW1463) was > 512 nM and the IC50 (SW837) was 1.66 nM. The IC50 (SW948) was > 512 nM, the IC50 (T84) was 13.4 nM and the IC50 5637 was 11.4 nM. The IC50 (639-V) was 0.512 nM, the IC50 (769-P) was 32.3 nM and the IC50 (786-0) was < 2 nM. For the same molecule, the IC50 (8505C) was < 2 nM, the IC50 (A-427) was 2.12 nM and the IC50 (ABC-1) was 3.19 nM. For the same molecule, the IC50 (ARH-77) was 75.1 nM, the IC50 (BXPC-3) was 6.53 nM and the IC50 (C-33-A) was 9.77 nM. The IC50 (CAL-27) was < 2 nM, the IC50 (CAL-62) was 71.6 nM and the IC50 (THP-1) was 11.4 nM. For the same molecule, the IC50 (UMC-11) was 9.15 nM, the IC50 (WM-115) was 21.9 nM and the IC50 (WSU-NHL) was 5.54 nM. It also gave an IC50 (CAPAN-1) of 13.5 nM.
